Source: ChEMBL document CHEMBL1275550, “In vitro activity of doripenem, a carbapenem for the treatment of challenging infections caused by gram-negative bacteria, against recent clinical isolates from the United States” (2008)
Converted amounts (≈) assume the structure as drawn.

What was measured:
Type in all cases: functional
[1] = test system: Escherichia coli; experiment: Antimicrobial activity against ESBL producing Escherichia coli assessed as resistant isolate by broth microdilution method
[2] = test system: Serratia marcescens; experiment: Antimicrobial activity against Ceftazidime non-susceptible Serratia marcescens assessed as resistant isolate by broth microdilution method
[3] = test system: Klebsiella pneumoniae; experiment: Antimicrobial activity against Non-ESBL Klebsiella pneumoniae assessed as resistant isolate by broth microdilution method
[4] = test system: Acinetobacter; experiment: Antimicrobial activity against imipenem susceptible Acinetobacter assessed as resistant isolate by broth microdilution method
[5] = test system: Citrobacter; experiment: Antimicrobial activity against Citrobacter with nonderepressed AmpC beta-lactamsae assessed as resistant isolate by broth microdilution method
[6] = test system: Staphylococcus; experiment: Antimicrobial activity against methicillin-resistant coagulase-negative Staphylococcus by broth microdilution method
[7] = test system: Streptococcus pneumoniae; experiment: Antimicrobial activity against penicillin-intermediate Streptococcus pneumoniae by broth microdilution method
[8] = test system: Proteus mirabilis; experiment: Antimicrobial activity against Proteus mirabilis assessed as intermediate isolate by broth microdilution method
[9] = test system: Staphylococcus; experiment: Antimicrobial activity against methicillin-susceptible coagulase-negative Staphylococcus assessed as susceptible isolate by broth microdilution method
[10] = test system: Citrobacter; experiment: Antimicrobial activity against Citrobacter assessed as intermediate isolate by broth microdilution method
[11] = test system: Escherichia coli; experiment: Antimicrobial activity against Escherichia coli assessed as intermediate isolate by broth microdilution method
[12] = test system: Enterobacteriaceae; experiment: Antimicrobial activity against Enterobacteriaceae assessed as resistant isolate by broth microdilution method
[13] = test system: Streptococcus pneumoniae; experiment: Antimicrobial activity against […] assessed as susceptible isolate by broth microdilution method
[14] = test system: Enterobacteriaceae; experiment: Antimicrobial activity against Enterobacteriaceae assessed as intermediate isolate by broth microdilution method
[15] = test system: Acinetobacter; experiment: Antimicrobial activity against Acinetobacter assessed as resistant isolate by broth microdilution method
[16] = test system: Citrobacter; experiment: Antimicrobial activity against Citrobacter assessed as resistant isolate by broth microdilution method
[17] = test system: Pseudomonas aeruginosa; experiment: Antimicrobial activity against Pseudomonas aeruginosa assessed as intermediate isolate by broth microdilution method
[18] = test system: Pseudomonas aeruginosa; experiment: Antimicrobial activity against Pseudomonas aeruginosa assessed as resistant isolate by broth microdilution method
[19] = test system: Pseudomonas aeruginosa; experiment: Antimicrobial activity against Pseudomonas aeruginosa isolated from ICU patient assessed as intermediate isolate by broth microdilution method in presence of Tazobactam
[20] = test system: Pseudomonas aeruginosa; experiment: Antimicrobial activity against ceftazidime susceptible Pseudomonas aeruginosa by broth microdilution method in presence of Tazobactam
[21] = test system: Acinetobacter; experiment: Antimicrobial activity against imipenem susceptible Acinetobacter by broth microdilution method in presence of Tazobactam
[22] = test system: Enterobacteriaceae; experiment: Antimicrobial activity against ceftazidime non-susceptible Enterobacteriaceae by broth microdilution method in presence of Tazobactam
[23] = test system: Pseudomonas aeruginosa; experiment: Antimicrobial activity against ceftazidime susceptible Pseudomonas aeruginosa assessed as resistant isolate by broth microdilution method in presence of Tazobactam
[24] = test system: Pseudomonas aeruginosa; experiment: Antimicrobial activity against Ceftazidime non-susceptible Pseudomonas aeruginosa assessed as intermediate isolate by broth microdilution method in presence of tazobactam
[25] = test system: Serratia marcescens; experiment: Antimicrobial activity against ceftazidime non-susceptible Serratia marcescens assessed as susceptible isolate by broth microdilution method in presence of Tazobactam
[26] = test system: Enterobacteriaceae; experiment: Antimicrobial activity against ceftazidime-susceptible Enterobacteriaceae assessed as resistant isolate by broth microdilution method in presence of Tazobactam
[27] = test system: Pseudomonas aeruginosa; experiment: Antimicrobial activity against Pseudomonas aeruginosa isolated from non-ICU patient assessed as susceptible isolate by broth microdilution method in presence of Tazobactam
[28] = test system: Pseudomonas aeruginosa; experiment: Antimicrobial activity against Pseudomonas aeruginosa isolated from ICU patient assessed as resistant isolate by broth microdilution method in presence of Tazobactam
[29] = test system: Pseudomonas aeruginosa; experiment: Antimicrobial activity against Pseudomonas aeruginosa isolated from ICU patient assessed as susceptible isolate by broth microdilution method in presence of Tazobactam
[30] = test system: Citrobacter; experiment: Antimicrobial activity against Citrobacter with nonderepressed AmpC beta-lactamsae by broth microdilution method in presence of Tazobactam
[31] = test system: Enterobacter cloacae; experiment: Antimicrobial activity against Enterobacter cloacae with nonderepressed AmpC beta-lactamsae assessed as resistant isolate by broth microdilution method in presence of Tazobactam
[32] = test system: Pseudomonas aeruginosa; experiment: Antimicrobial activity against imipenem non-susceptible Pseudomonas aeruginosa assessed as resistant isolate by broth microdilution method in presence of Tazobactam
[33] = test system: Klebsiella pneumoniae; experiment: Antimicrobial activity against Non-ESBL Klebsiella pneumoniae assessed as susceptible isolate by broth microdilution method in presence of Tazobactam
[34] = test system: Pseudomonas aeruginosa; experiment: Antimicrobial activity against Pseudomonas aeruginosa isolated from non-ICU patient assessed as resistant isolate by broth microdilution method in presence of Tazobactam
[35] = test system: Citrobacter; experiment: Antimicrobial activity against Citrobacter with nonderepressed AmpC beta-lactamsae assessed as resistant isolate by broth microdilution method in presence of Tazobactam
[36] = test system: Pseudomonas aeruginosa; experiment: Antimicrobial activity against ceftazidime non-susceptible Pseudomonas aeruginosa assessed as susceptible isolate by broth microdilution method in presence of Tazobactam
[37] = test system: Pseudomonas aeruginosa; experiment: Antimicrobial activity against imipenem susceptible Pseudomonas aeruginosa assessed as resistant isolate by broth microdilution method in presence of Tazobactam
[38] = test system: Acinetobacter; experiment: Antimicrobial activity against imipenem non-susceptible Acinetobacter assessed as intermediate isolate by broth microdilution method in presence of Tazobactam
[39] = test system: Acinetobacter; experiment: Antimicrobial activity against imipenem susceptible Acinetobacter assessed as resistant isolate by broth microdilution method in presence of Tazobactam
[40] = test system: Citrobacter; experiment: Antimicrobial activity against Citrobacter with derepressed AmpC beta-lactamsae assessed as intermediate isolate by broth microdilution method in presence of Tazobactam
[41] = test system: Pseudomonas aeruginosa; experiment: Antimicrobial activity against Pseudomonas aeruginosa isolated from ICU patient assessed as intermediate isolate by broth microdilution method
[42] = test system: Citrobacter; experiment: Antimicrobial activity against Citrobacter with nonderepressed AmpC beta-lactamsae assessed as susceptible isolate by broth microdilution method in presence of Tazobactam
[43] = test system: Escherichia coli; experiment: Antimicrobial activity against Non-ESBL Escherichia coli assessed as intermediate isolate by broth microdilution method in presence of Tazobactam
[44] = test system: Pseudomonas aeruginosa; experiment: Antimicrobial activity against imipenem susceptible Pseudomonas aeruginosa by broth microdilution method in presence of Tazobactam
[45] = test system: Enterobacteriaceae; experiment: Antimicrobial activity against ceftazidime-susceptible Enterobacteriaceae assessed as intermediate isolate by broth microdilution method in presence of Tazobactam
[46] = test system: Escherichia coli; experiment: Antimicrobial activity against ESBL producing Escherichia coli assessed as resistant isolate by broth microdilution method in presence of Tazobactam
[47] = test system: Klebsiella pneumoniae; experiment: Antimicrobial activity against Non-ESBL Klebsiella pneumoniae assessed as intermediate isolate by broth microdilution method in presence of Tazobactam
[48] = test system: Acinetobacter; experiment: Antimicrobial activity against imipenem susceptible Acinetobacter assessed as susceptible isolate by broth microdilution method in presence of Tazobactam
[49] = test system: Enterobacteriaceae; experiment: Antimicrobial activity against ceftazidime-susceptible Enterobacteriaceae by broth microdilution method in presence of Tazobactam
[50] = test system: Citrobacter; experiment: Antimicrobial activity against Citrobacter with derepressed AmpC beta-lactamsae by broth microdilution method in presence of Tazobactam

Q: Which Activity [1] does the source give for CC(C)(O/N=C(\C(=O)N[C@@H]1C(=O)N2C(C(=O)[O-])=C(C[n+]3ccccc3)CS[C@H]12)c1csc(N)n1)C(=O)O [CEFTAZIDIME] here?
A: Its Activity is 56.7%.

Q: What about the Activity [2] of the same compound?
A: The Activity was 100%.

Q: And the Activity [3]?
A: Its Activity is 0.6%.

Q: What about the Activity [4] of the same compound?
A: The Activity was 27.7%.

Q: What about the Activity [5] of the same compound?
A: Its Activity is 1.3%.

Q: For C[C@@H](O)[C@H]1C(=O)N2C(C(=O)O)=C(S[C@@H]3CN[C@H](CNS(N)(=O)=O)C3)[C@H](C)[C@H]12 [DORIPENEM], which MIC50 [6] is on record?
A: The MIC50 was 1 µg/mL (≈ 2.38 µM).

Q: What about the MIC90 [6] of the same compound?
A: Its MIC90 is 8 µg/mL (≈ 19 µM).

Q: What about the MIC50 [7] of the same compound?
A: Its MIC50 is 0.03 µg/mL (≈ 0.0713 µM).

Q: What about the MIC90 [7] of the same compound?
A: Its MIC90 is 0.5 µg/mL (≈ 1.19 µM).

Q: What does the source list for C[C@@H](O)[C@H]1C(=O)N2C(C(=O)O)=C(SCCNC=N)C[C@H]12 [IMIPENEM ANHYDROUS]?
A: Activity [8]: 2.5%; Activity [9]: 99.4%; Activity [10]: 0%; Activity [11]: 0%; Activity [5]: 0.2%; Activity [12]: 0.1%; Activity [13]: 99.9%; Activity [14]: 0.4%; MIC50 [6]: 0.25 µg/mL (≈ 0.835 µM); MIC90 [6]: 16 µg/mL (≈ 53.4 µM); Activity [15]: 17%; MIC50 [7]: 0.03 µg/mL (≈ 0.1 µM); MIC90 [7]: 0.25 µg/mL (≈ 0.835 µM); Activity [16]: 0.2%; Activity [17]: 7.7%; Activity [18]: 16%

Q: For C[C@@H](O)[C@H]1C(=O)N2C(C(=O)O)=C(S[C@@H]3CN[C@H](C(=O)N(C)C)C3)[C@H](C)[C@H]12 [MEROPENEM], which Activity [8] is on record?
A: Its Activity is 0%.

Q: And the Activity [9]?
A: The Activity was 99.4%.

Q: What about the Activity [3] of the same compound?
A: Its Activity is 0.2%.

Q: And the Activity [10]?
A: Its Activity is 0%.

Q: What about the Activity [11] of the same compound?
A: Its Activity is 0%.

Q: And the Activity [4]?
A: Its Activity is 0.4%.

Q: What about the Activity [12] of the same compound?
A: Its Activity is 0.1%.

Q: And the Activity [13]?
A: Its Activity is 100%.

Q: And the Activity [14]?
A: The Activity was 0%.

Q: What about the Activity [15] of the same compound?
A: The Activity was 18%.

Q: What about the Activity [17] of the same compound?
A: Its Activity is 4.6%.

Q: And the Activity [18]?
A: The Activity was 10.2%.

Q: CCN1CCN(C(=O)N[C@@H](C(=O)N[C@@H]2C(=O)N3[C@@H]2SC(C)(C)[C@@H]3C(=O)O)c2ccccc2)C(=O)C1=O [PIPERACILLIN] was tested. Which Activity [19] did it give?
A: The Activity was 0%.

Q: And the MIC50 [20]?
A: Its MIC50 is 16 µg/mL.

Q: And the MIC90 [20]?
A: Its MIC90 is 64 µg/mL.

Q: And the MIC50 [21]?
A: The MIC50 was 16 µg/mL.

Q: And the MIC90 [21]?
A: Its MIC90 is greater than 128 µg/mL.

Q: And the MIC50 [22]?
A: The MIC50 was 128 µg/mL.

Q: And the MIC90 [22]?
A: Its MIC90 is greater than 128 µg/mL.

Q: And the Activity [23]?
A: The Activity was 3.7%.

Q: What about the Activity [24] of the same compound?
A: Its Activity is 0%.

Q: And the Activity [25]?
A: Its Activity is 20%.

Q: What about the Activity [26] of the same compound?
A: Its Activity is 1.9%.

Q: What about the Activity [27] of the same compound?
A: The Activity was 87%.

Q: What about the Activity [28] of the same compound?
A: The Activity was 21.6%.

Q: What about the Activity [29] of the same compound?
A: Its Activity is 78.4%.

Q: And the MIC50 [30]?
A: Its MIC50 is 4 µg/mL.

Q: And the MIC90 [30]?
A: The MIC90 was 16 µg/mL.

Q: And the Activity [31]?
A: Its Activity is 3.5%.

Q: What about the Activity [32] of the same compound?
A: Its Activity is 27.1%.

Q: And the Activity [33]?
A: The Activity was 95.9%.

Q: What about the Activity [34] of the same compound?
A: Its Activity is 13%.

Q: What about the Activity [35] of the same compound?
A: Its Activity is 2.6%.

Q: What about the Activity [36] of the same compound?
A: Its Activity is 17.3%.

Q: And the Activity [37]?
A: The Activity was 9.4%.

Q: What about the Activity [38] of the same compound?
A: Its Activity is 3.9%.

Q: What about the Activity [39] of the same compound?
A: Its Activity is 29.8%.

Q: What about the Activity [40] of the same compound?
A: Its Activity is 29.1%.

Q: And the MIC50 [41]?
A: The MIC50 was 16 µg/mL.

Q: What about the MIC90 [41] of the same compound?
A: The MIC90 was greater than 128 µg/mL.

Q: And the Activity [42]?
A: Its Activity is 93.7%.

Q: And the Activity [43]?
A: Its Activity is 3.2%.

Q: What about the MIC50 [44] of the same compound?
A: Its MIC50 is 16 µg/mL.

Q: And the MIC90 [44]?
A: Its MIC90 is 64 µg/mL.

Q: What about the Activity [45] of the same compound?
A: The Activity was 2.3%.

Q: What about the Activity [46] of the same compound?
A: Its Activity is 30%.

Q: What about the Activity [47] of the same compound?
A: Its Activity is 2.4%.

Q: And the Activity [48]?
A: Its Activity is 52.1%.

Q: What about the MIC50 [49] of the same compound?
A: The MIC50 was 4 µg/mL.

Q: What about the MIC90 [49] of the same compound?
A: Its MIC90 is 8 µg/mL.

Q: And the MIC50 [50]?
A: The MIC50 was 128 µg/mL.

Q: What about the MIC90 [50] of the same compound?
A: The MIC90 was greater than 128 µg/mL.
